Experimental data as given in US20250082570A1, “COMBINATION THERAPY FOR TREATING NON-TUBERCULOUS MYCOBACTERIAL LUNG DISEASE” (priority 2021, published 2025).
Read-outs that look alike come from different tables or passages of the source.

Test system: M abscessus ATCC 19977 Type strain
Assay: checkerboard minimum inhibitory concentration (MIC) assay with FICI calculation
Format: cell-based
Conditions: for MIC: 168 h; for Active Agent-Y MIC Combination: MIC of the labelled Antiinfective-Y in combination with amikacin; for Definition (interpretation of FICI) / FICI (Fractional Inhibitory Concentration Index): labelled Antiinfective-Y in combination with amikacin
[1] = read-out: Active Agent-Y MIC Alone
[2] = Antiinfective-Y alone, M abscessus ATCC 19977, 37° C., 7 days, absorbance 595 nm, read-out: Active Agent-Y MIC Alone

| SMILES | MIC (amikacin alone (column 12 of the checkerboard plate run with the row's Antiinfective-Y), M abscessus ATCC 19977, 37° C., 7 days, absorbance 595 nm, read-out: Amikacin (Active Agent-X) MIC Alone) | Amikacin (Active Agent-X) MIC Alone (amikacin alone (column 12 of the checkerboard plate run with the row's Antiinfective-Y), M abscessus ATCC 19977, 37° C., 7 days, absorbance 595 nm) | MIC [1] | Active Agent-Y MIC Combination (M abscessus ATCC 19977, 7 days) | Definition (interpretation of FICI) (M abscessus ATCC 19977) | FICI (Fractional Inhibitory Concentration Index) (M abscessus ATCC 19977) | MIC [2] |
| --- | --- | --- | --- | --- | --- | --- | --- |
| NCC[C@H](O)C(=O)N[C@@H]1C[C@H](N)[C@@H](O[C@H]2O[C@H](CN)[C@@H](O)[C@H](O)[C@H]2O)[C@H](O)[C@H]1O[C@H]1O[C@H](CO)[C@@H](O)[C@H](N)[C@H]1O [Amikacin] | 2 µg/mL | 1 µg/mL |  |  |  |  |  |
| COc1nc2ccc(Br)cc2cc1[C@@H](c1ccccc1)[C@@](O)(CCN(C)C)c1cccc2ccccc12 [Bedaquiline] |  |  | 2 µg/mL | 0.125 µg/mL | Synergy (<0.5) | 0.09 |  |
| C[C@@H](O)[C@H]1C(=O)N2C(C(=O)[O-])=C(SC3Cn4cnc[n+]4C3)[C@H](C)[C@H]12 (some centres unmarked) [Biapenem] |  |  |  | 0.0625 µg/mL | Synergy (<0.5) | 0.07 | 8 µg/mL |
| C=CC1=C(C(=O)O)N2C(=O)[C@@H](NC(=O)/C(=N\O)c3csc(N)n3)[C@H]2SC1 [Cefdinir] |  |  |  | 0.5 µg/mL | Synergy (<0.5) | 0.13 | 8 µg/mL |
| CC[C@H]1OC(=O)[C@H](C)[C@@H](O[C@H]2C[C@@](C)(OC)[C@@H](O)[C@H](C)O2)[C@H](C)[C@@H](O[C@@H]2O[C@H](C)C[C@H](N(C)C)[C@H]2O)[C@](C)(OC)C[C@@H](C)C(=O)[C@H](C)[C@@H](O)[C@]1(C)O [Clarithromycin] |  |  |  | 0.25 µg/mL | Additive | 2.50 | 0.5 µg/mL |
| CC(C)/N=c1\cc2n(-c3ccc(Cl)cc3)c3ccccc3nc-2cc1Nc1ccc(Cl)cc1 [Clofazimine] |  |  | 2 µg/mL | 0.0625 µg/mL | Synergy (<0.5) | 0.16 |  |
| C[C@@H](O)[C@H]1C(=O)N2C(C(=O)O)=C(S[C@@H]3CN[C@H](CNS(N)(=O)=O)C3)[C@H](C)[C@H]12 [Doripenem] |  |  |  | 0.25 µg/mL | Synergy (<0.5) | 0.31 | 4 µg/mL |
| CC[C@@H](CO)NCCN[C@@H](CC)CO [Ethambutol] |  |  | 16 µg/mL | 4 µg/mL | Synergy (<0.5) | 0.38 |  |
| C[C@@H](O)[C@H]1C(=O)N2C(C(=O)O)=C(SCCN=CN)C[C@H]12 [Imipenem] |  |  |  | 0.25 µg/mL | Synergy (<0.5) | 0.38 | 2 µg/mL |
| C[C@H]1COc2c(N3CCN(C)CC3)c(F)cc3c(=O)c(C(=O)O)cn1c23 [Levofloxacin] |  |  | 4 µg/mL | 0.0625 µg/mL | Synergy (<0.5) | 0.14 |  |
| CC(=O)NC[C@H]1CN(c2ccc(N3CCOCC3)c(F)c2)C(=O)O1 [Linezolid] |  |  |  | 2 µg/mL | Additive | 3.00 | 2 µg/mL |
| COc1c(N2C[C@@H]3CCCN[C@@H]3C2)c(F)cc2c(=O)c(C(=O)O)cn(C3CC3)c12 [Moxifloxacin] |  |  | 1 µg/mL | 0.125 µg/mL | Synergy (<0.5) | 0.38 |  |
| CO[C@H]1/C=C/O[C@@]2(C)Oc3c(C)c(O)c4c(c3C2=O)C2=NC3(CCN(CC(C)C)CC3)NC2=C(NC(=O)/C(C)=C\C=C\[C@H](C)[C@H](O)[C@@H](C)[C@@H](O)[C@@H](C)[C@H](OC(C)=O)[C@@H]1C)C4=O [Rifabutin] |  |  |  | 0.0625 µg/mL | Synergy (<0.5) | 0.31 | 1 µg/mL |
| CO[C@H]1/C=C/O[C@@]2(C)Oc3c(C)c(O)c4c(O)c(c(/C=N/N5CCN(C)CC5)c(O)c4c3C2=O)NC(=O)/C(C)=C\C=C\[C@H](C)[C@H](O)[C@@H](C)[C@@H](O)[C@@H](C)[C@H](OC(C)=O)[C@@H]1C [Rifampicin] |  |  | 8 µg/mL | 0.5 µg/mL | Synergy (<0.5) | 0.31 |  |
| C[C@@H](O)[C@H]1C(=O)N2C(C(=O)O)=C(SC3CN(C4=NCCS4)C3)[C@H](C)[C@H]12 [Tebipenem] |  |  |  | 0.25 µg/mL | Synergy (<0.5) | 0.28 | 8 µg/mL |
| Cn1nnc(-c2ccc(-c3ccc(N4C[C@H](CO)OC4=O)cc3F)cn2)n1 [Tedizolid] |  |  |  | 0.5 µg/mL | Additive | 3.00 | 0.5 µg/mL |
| COc1ccc2cc1Oc1ccc(cc1)C[C@H]1c3cc(c(OC)cc3CCN1C)Oc1c(OC)c(OC)cc3c1[C@H](C2)N(C)CC3 [Tetrandrine] |  |  | 64 µg/mL | 8 µg/mL | Synergy (<0.5) | 0.25 |  |
| CN(C)c1cc(NC(=O)CNC(C)(C)C)c(O)c2c1C[C@H]1C[C@H]3[C@H](N(C)C)C(O)=C(C(N)=O)C(=O)[C@@]3(O)C(O)=C1C2=O [Tigecycline] |  |  | 2 µg/mL | 0.5 µg/mL | Additive | 0.75 |  |
| CN[C@H](CC(C)C)C(=O)N[C@H]1C(=O)N[C@@H](CC(N)=O)C(=O)N[C@H]2C(=O)N[C@H]3C(=O)N[C@H](C(=O)N[C@H](C(=O)O)c4cc(O)cc(O)c4-c4cc3ccc4O)[C@H](O)c3ccc(c(Cl)c3)Oc3cc2cc(c3O[C@@H]2O[C@H](CO)[C@@H](O)[C@H](O)[C@H]2O[C@H]2C[C@](C)(N)[C@H](O)[C@H](C)O2)Oc2ccc(cc2Cl)[C@H]1O [Vancomycin] |  |  | 4 µg/mL | 1 µg/mL | Additive | 0.50 |  |
